Source: US20080306070A1, “Combination Therapy Comprising Substituted Oxazolidinones for the Prevention and Treatment of Cerebral Circulatory Disorders” (BAYER HEALTHCARE AG, priority 2005, published 2008)

Key:
[1] = test system: thrombus formation in an arteriovenous shunt; assay: Arteriovenous shunt model (rat), antithrombotic effect; format: in vivo; details: oral administration, read-out: ED50 [mg/kg] p.o.
Protocol: Fasting male rats (strain: HSD CPB:WU) weighing 200-250 g were anesthetized with a Rompun/Ketavet solution (12 mg/kg/50 mg/kg). Thrombus formation was induced in an arteriovenous shunt by a method based on that described by Christopher N. Berry et al., Br. J. Pharmacol. (1994), 113, 1209-1214. For this purpose, the left jugular vein and the right carotid artery were exposed. An extracorporeal shunt was formed between the two vessels using a 10 cm-long polyethylene tube (PE 60). This polyethylene tube was secured in the middle by tying in a further 3 cm-long polyethylene tube (PE 160) which contained a roughened nylon thread forming a loop to produce a thrombogenic surface. The extracorporeal circulation was maintained for 15 minutes. The shunt was then removed and the nylon thread with the thrombus was immediately weighed. The blank weight of the nylon thread had been found before the start of the experiment. The test substances were administered either intravenously through the tail vein or orally by gavage to conscious animals before setting up the extracorporeal circulation.

| melting point | Structure (SMILES) | ED50 [1] |
| --- | --- | --- |
|  | O=C(NC[C@H]1CN(c2ccc(N3CCOCC3=O)cc2)C(=O)O1)c1ccc(Cl)s1 [Example 44, 5-Chloro-N-({(5S)-2-oxo-3-[4-(3-oxo-4-morpholinyl)phenyl]-1,3-oxazolidin-5-yl}methyl)-2-thiophenecarboxamide] | 3 mg/kg |
| 228 to 230 °C | O=C(NC[C@H]1CN(c2ccc(N3CCCOC3=O)cc2)C(=O)O1)c1ccc(Cl)s1 [Example 255] |  |
